Earlier results, collected in patent publication US8652504B2, “Solid polymer delivery compositions and methods for use thereof” (Medivas, LLC, priority 2005, dated 2014).

What was measured:
nerve impulses = conditions: local anesthetic
[1] = in vivo

| serum bupivacaine level (one patient receiving 0.5% intra-articular bupivacaine at 4 mL/hr) [µg/mL] | SMILES | morphine requirements and subjective pain scores (intra-articular bupivacaine (up to 0.5%) at 4 mL/hr, first 24 hours after surgery) | duration of action (nerve impulses) [h] | serum bupivacaine level at which toxicity has been reported / generally considered toxic [1] [µg/mL] |
| --- | --- | --- | --- | --- |
| 1.2 | CCCCN1CCCCC1C(=O)Nc1c(C)cccc1C (centres unmarked) [bupivacaine] | neither reduced morphine requirements nor decreased subjective pain scores | 6 to 8 | 1.0 |
|  | CCN(CC)CC(=O)Nc1c(C)cccc1C [lidocaine] |  | 1 to 2 |  |
